According to ChEMBL document CHEMBL3507680, “University of Dundee, Gates Library screen for HepG2 cell viability”:

Test: Human HepG2 cell viability assay in 384 well format
Format: toxicity, cell-based
Parameters: dose 125 nL, time 70.5 hour; concentration not given beside the values
Conditions: HepG2 cells, read-out: Inhibition

Compound | cytotoxicity at 70.5 h [%]
CN(Cc1cnn(C)c1)C(=O)c1ccc(=O)n(Cc2ccccc2)n1 | 27.5
COC(=O)C(C)(C)NC(=O)C1CC(=O)N(CC(F)(F)F)C1 (centres undefined) | 0.904
Cc1nnc2n1CCN(C(=O)c1ccn(-c3cccc(F)c3)n1)C2 | 5.14
CCc1nnc2n1CCN(C(=O)c1cn(-c3ccccc3)nn1)C2 | 3.13
Cc1nnc2n1CCN(C(=O)c1cn(-c3ccc(F)cc3)nn1)C2 | -0.105
Cc1cc(NC(=O)N2CCOC(C(N)=O)C2)ccc1Br (centres undefined) | -12.3
O=C(Nc1cccc(CN2CCC(CO)CC2)c1)c1cc(Cl)c[nH]1 | 32.7
N#CCSCCCN1CCN(C(=O)c2ccccc2F)CC1 | -12.3
CN(Cc1ccco1)C(=O)C1=NN(C)C(=O)CC1 | -3.82
Cc1cccc(C(=O)N2CCCN(CCCSCC#N)CC2)c1 | -10.7
CCCn1nc(C(=O)N(C)Cc2cnn(C)c2)ccc1=O | 0.0623
Cc1ccc(N(Cc2ccco2)C(=O)CC2=NN(C)C(=O)C2)cc1 | -9.83
COc1c(CNCc2cccnc2N2CCN(C)CC2)c(C)nn1C | 4
CN(Cc1cccc(C#N)c1)S(=O)(=O)N1CCOCC1 | -9.82
Cc1ccc(CNC(=O)NC2CCCN(c3ncccn3)C2)cn1 (centres undefined) | -10
COc1ccc(CNC(=O)c2ccc(Cl)cc2F)cc1C(=O)O | -4.39
Cc1ccc(OCCC(=O)N(C)CCC#N)cc1C | -7.6
Cc1nn(CC(=O)N2CCN(Cc3cccnc3)CC2)c(C)c1Cl | -10.2
Cc1cccc(OCCC(=O)N(C)CC(C)C#N)c1C (centres undefined) | 19.7
COCCn1ccc(NC(=O)Nc2ccncc2)n1 | -3.96

Compound | cytotoxicity at 70.5 h [%]
CCN(C(=O)Cc1ccc(NC(=O)NC2CC2)cc1)c1ccccc1 | -3.6
CCc1cccc(C)c1NC(=O)C1CC(=O)N(Cc2ccccn2)C1 (centres undefined) | -3.75
Cc1noc(C(C)C)c1C(=O)NS(=O)(=O)c1cccnc1 | 17.5
COCCN(C)C(=O)Nc1ccc2c(ccn2CC(=O)N(C)C)c1 | -3.43
Cc1nc(CC(=O)N2CCN(c3ccc(N(C)C)cc3)CC2)cs1 | 4.33
CCc1nccn1C1CCCN(C(=O)c2ccc(C(N)=O)cn2)C1 (centres undefined) | -9.53
CC(NC(=O)c1ccc(=O)n(C)c1)c1ccc(OCC2CC2)c(F)c1 (centres undefined) | -11.1
CCc1nccn1C1CCCN(C(=O)c2ccnc(N(C)C)c2)C1 (centres undefined) | -7.75
CCc1csc(C2CCCN(C(=O)c3ccncc3)C2)n1 (centres undefined) | -5.33
O=C(CN1CCCC1CC(=O)c1ccccc1)NCc1ccccn1 (centres undefined) | 4.93
CSc1ccc(C(CNC(C)=O)N2CCc3sccc3C2)cc1 (centres undefined) | -12.8
CCC(C)C(=O)NCCCn1nc(C)cc1C (centres undefined) | -13.2
CCOc1cccc(C(=O)NCCC(=O)NCc2ccncc2)c1 | 23
Cc1noc(C(C)N2CCN(c3ccc(C#N)cn3)CC2)n1 (centres undefined) | -10.1
CC(C)c1noc(C(C)N2CCN(c3ccc(C#N)cn3)CC2)n1 (centres undefined) | -15.5
CN(Cc1nccn1CC(F)(F)F)C(=O)c1cccc(N(C)C)c1 | 0.768
CN(Cc1nccn1CC(F)(F)F)C(=O)c1ccc2c(c1)OCO2 | -11
CCOc1ccc(C(=O)N(C)Cc2nccn2CC(F)(F)F)cc1 | -2.52
O=C(c1n[nH]c(=O)c2ccccc12)N1CCCC1Cn1cccn1 (centres undefined) | -8.16
Cc1cc(N2CCN(c3ccc(=O)[nH]n3)CC2)nc(-c2ccncc2)n1 | -5.53

Compound | cytotoxicity at 70.5 h [%]
Cc1n[nH]c(C2CN(C(=O)c3cc(C4CC4)on3)CCO2)n1 (centres undefined) | 17
O=C(NCCc1nnc2n1CCC2)NCC1(c2ccccc2F)CC1 | -6.03
CC1CN(CC(=O)NC(=O)NCc2cccs2)CCN1CC(F)(F)F (centres undefined) | -11
COc1cc(C(=O)N(C)Cc2nccn2CC(F)(F)F)ccc1C | 15.7
COC(=O)c1ccoc1CN(C)Cc1cc(OC)c(OC)cc1C | -12.1
CCc1n[nH]c(C2CN(C(=O)c3cc(C4CC4)on3)CCO2)n1 (centres undefined) | -5.69
O=C(CN1CCCC1COc1ccccc1)NCc1ccccn1 (centres undefined) | -10.9
Cc1cnn(CC2CCCN2C(=O)CCc2c(C)nc(C)[nH]c2=O)c1 (centres undefined) | -10.8
Cc1cnn(CC2CCCN2CC(=O)NCc2ccccn2)c1 (centres undefined) | -3.32
CCc1nc(CN2CCCC(N(C)CCc3cccs3)C2)no1 (centres undefined) | 21.1
CN(CCc1ccccn1)C1CCCN(Cc2noc(C3CC3)n2)C1 (centres undefined) | -4.84
CC(=O)N1CCN(CCNS(=O)(=O)c2cc(F)ccc2C)CC1 | 4.62
O=C(CC1CCCO1)NCCc1ccc(Br)cc1F (centres undefined) | -5.5
COc1ccc(CNCCc2ccn(-c3ccccc3)n2)cc1O | -8.7
O=C(CCC1CCCO1)NCc1ccc(Br)cc1F (centres undefined) | 12.7
CSCC(=O)NC1CCN(C(C)c2ccccc2)CC1 (centres undefined) | -6.02
Cc1cc(C#N)ccc1S(=O)(=O)NCc1cnc(N(C)C)n1C | -5.78
Cc1nn(C)c(C)c1CC(C)NC(=O)NCc1ccoc1C (centres undefined) | -4.68
COc1ccccc1CC(C)(C)NC(=O)CC(F)(F)F | -11.8
